Experimental data as given in patent US20220348567A1, “NOVEL OXADIAZOLE COMPOUNDS CONTAINING 5- MEMBERED HETEROAROMATIC RING FOR CONTROLLING OR PREVENTING PHYTOPATHOGENIC FUNGI” (PI INDUSTRIES LTD., priority 2019, published 2022).

Assays:
Format in all cases: cell-based
Parastagonospora nodorum = Parastagonospora nodorum (PARANO) microtiter growth inhibition assay, OD600; settings: 18° C., 15-18 days, read-out: control (growth inhibition by OD600)
Protocol: Potato dextrose (PDB) liquid medium (Difco) containing a […] (10^5 spores/ml) spore suspension was prepared. For the inhibition assay, each test compound was solved in dimethyl sulfoxide. 100 μl of the test media-solution was added to a 96-well microtiter plate, consequently, the same volume (100 μl) of spore suspension was added to the well making the final test concentrations and the plate was incubated at 18° C. for 15-18 days. The growth inhibition was evaluated by measuring the OD600. Percent inhibition was calculated with the below formula: I=([…])*100 Where T=treatment, C═control, and B=blank

Botrytis cinerea = Botrytis cinerea (gray mold) in vitro radial growth test on potato dextrose agar; settings: 300 ppm; 7 days, 22° C., 90% relative humidity
Fusarium culmorum = Fusarium culmorum (foot rot of cereals) in vitro radial growth test on potato dextrose agar; settings: 300 ppm; 7 days, 25° C., 60% relative humidity
Protocol: Compounds were dissolved in 0.3% dimethyl sulfoxide and then added to potato dextrose agar medium just prior to dispensing it into petri dishes. 5 mL medium with the compound in the desired concentration was dispensed into 60 mm sterile petri-plates. After solidification, each plate was seeded with a 5 mm size mycelial disc taken from the periphery of an actively growing virulent culture plate. Plates were incubated in growth chambers at 25° C. temperature and 60% relative humidity for seven days and then the radial growth was measured and compared to the one of the untreated control.

CS(=O)(=NC(=O)c1ccn(-c2ccc(-c3noc(C(F)(F)F)n3)cc2)c1)c1ccncc1F (stereo not drawn) [Compound 28, N-((3-fluoropyridin-4-yl)(methyl)(oxo)-λ^6-sulfanylidene)-1-(4-(5-(trifluoromethyl)-1,2,4-oxadiazol-3-yl)phenyl)-1H-pyrrole-3-carboxamide]
≥ 70%: inhibition at 300 ppm (Parastagonospora nodorum) | control (radial growth compared to untreated control) (Botrytis cinerea) | control (radial growth compared to untreated control) (Fusarium culmorum)
